What is called kinetic solubility is the concentration staying in solution when a stock, usually in DMSO, is diluted into the medium.

In brackets after ≈: the same amount, converted by molar mass.

The conditions of this series: buffer; pH 7.4; 200.0 µM.
Molecule `CC(C)(C)Nc1c(-c2ccc(O)cc2)nc2ccc(Cl)cn12` displayed a kinetic solubility of 0.4 µg/mL (≈ 1.27 µM).
`CCC1(c2ccc(Cl)cc2)NC(=O)N(CC(=O)N2CCN(C(=O)c3ccco3)CC2)C1=O` (centres undefined) returned a kinetic solubility above 68.8 µg/mL.
The molecule `COc1ccc(C(N)=O)c(OCC(=O)Nc2cc(C)on2)c1` gave a solubility (kinetic) of 11 µg/mL (≈ 36 µM).
With `O=C(CSc1nccc(=O)[nH]1)NCc1ccc(Cl)cc1`, the solubility (kinetic) is above 46.5 µg/mL.
The molecule `CC(C)(CN1CCc2ccccc2C1)NS(=O)(=O)c1ccccc1` showed a solubility (kinetic) of 34.8 µg/mL (≈ 101 µM).
To `COC(=O)NC(C)N1C(=O)C2C3C=CC(C3)C2C1=O` (centres undefined) belongs above 39.6 µg/mL; to `CC1CCN(C(=O)CN2C(=O)c3cccc4cccc(c34)C2=O)CC1`, 2.1 µg/mL (≈ 6.24 µM).
`CC(=O)Nc1ccccc1NC(=O)c1ccc(C)c(C)c1` registered a solubility (kinetic) above 42.4 µg/mL.
To `O=S(=O)(Cc1ccco1)Cc1nc(-c2ccc(Cl)cc2)cs1` belongs 0.9 µg/mL (≈ 2.54 µM); to `CCCN1CCN(CCNC(=O)Nc2cc(C)ccc2C)CC1`, above 47.8 µg/mL.
In the case of `CCOC(=O)c1c(C)nc(C(Cl)(Cl)Cl)nc1N`, the kinetic solubility was 21.7 µg/mL (≈ 72.7 µM).
In the case of `CC(C)[N+](C)(CCOC(=O)C1c2ccccc2Oc2ccccc21)C(C)C.[Br-]`, the kinetic solubility was above 67.3 µg/mL.
The molecule `CN(C(=O)C1CCC1C(=O)O)c1nc(-c2ccc(Cl)s2)cs1` (centres undefined) had a kinetic solubility of 42.6 µg/mL (≈ 119 µM).
`CSc1ncccc1C(=O)Nc1ccc(C)cn1`: the kinetic solubility is above 38.9 µg/mL.
In turn, `O=C(CCCc1ccccc1)NCc1ccccc1Cl` gave a solubility (kinetic) of 32.9 µg/mL (≈ 114 µM).
In turn, `Cc1ccc(CNC(=O)C2CCC(=O)N2Cc2ccc(F)cc2)cc1` (centres undefined) showed a solubility (kinetic) of 50.2 µg/mL (≈ 147 µM).
In turn, `COC(=O)c1sccc1NC(=O)COc1cccc(C)c1` came in with a kinetic solubility below 0.7 µg/mL.
As to `COc1ccc(C(=S)N2CCN(c3cccc(Cl)c3)CC2)cc1`, the kinetic solubility was 1.2 µg/mL (≈ 3.46 µM).
Consider `O=C(NCc1ccncc1)c1cncc(Br)c1`, for which the kinetic solubility was above 43.8 µg/mL.
In the case of `COc1ccc(/C=C/C(=O)OCc2cccc([N+](=O)[O-])c2)cc1`, the solubility (kinetic) was below 0.7 µg/mL.
Regarding `CC(Oc1ccccc1)C(=O)Nc1nc(-c2ccncc2)cs1` (centres undefined), the solubility (kinetic) was determined as 2.6 µg/mL (≈ 7.99 µM).
To `CCNc1nc(Cl)nc(NC2CCCCC2)n1` belongs 18.4 µg/mL (≈ 71.9 µM).
As for `Cn1c(=O)[nH]c(=O)c2c1nc(N1CCNCC1)n2Cc1ccccc1`, the solubility (kinetic) stood at 45.8 µg/mL (≈ 135 µM).
To `COc1cccc(C(=O)C2CN(C)CC2c2ccc(Cl)cc2)c1` (centres undefined) belongs above 49.5 µg/mL; to `C=Cc1cccc(NC(=O)c2ccc(NC(=O)c3ccco3)cc2)c1`, 3.1 µg/mL (≈ 9.33 µM).
To `Cc1occc1C(=O)Nc1ccccc1C#N` belongs above 33.9 µg/mL; to `Cc1ccc(S(=O)(=O)N2CCCCC2C(=O)Nc2ccc(N(C)C)cc2)cc1` (centres undefined), 5.7 µg/mL (≈ 14.2 µM).
To `COC(=O)NCN1C(=O)C2C3C=CC(C3)C2C1=O` (centres undefined) belongs 34.4 µg/mL (≈ 137 µM); to `N#Cc1c(-c2ccccc2)nc2n1CCS2`, 7.3 µg/mL (≈ 32.1 µM); to `Cc1ccc(S(=O)(=O)N(C)C)cc1NC(=O)c1cccs1`, 39.8 µg/mL (≈ 123 µM).
In turn, `O=C1c2ccccc2NC(c2cccc(O)c2)N1c1ccccc1` (centres undefined) returned a kinetic solubility of 2.9 µg/mL (≈ 9.17 µM). Compared with the last molecule, the solubility kinetic is about 14-fold lower.
In the case of `O=C1ON=C(c2ccccc2)/C1=C/c1ccccc1`, the kinetic solubility was 34.7 µg/mL (≈ 139 µM).
In the case of `O=C1CC(=O)N(c2cccc(C(F)(F)F)c2)C(=O)N1`, the solubility (kinetic) is above 40.8 µg/mL.
For `CC1CCN(C(=O)COC(=O)/C=C/c2ccco2)CC1`, the kinetic solubility is above 41.6 µg/mL.
`c1ccc(-c2nc(NCc3cccs3)c3ccccc3n2)cc1`: the kinetic solubility was determined as 0.7 µg/mL (≈ 2.21 µM).
To `CCOC(=O)C(=CNc1ccc(Cl)cn1)C(=O)OCC` belongs 1.2 µg/mL (≈ 4.02 µM); to `O=C(Nc1cccc(F)c1)Nc1ccc2c(c1)OCO2`, 4.4 µg/mL (≈ 16 µM); to `COc1cc(=O)[nH]c(SC(C)C(=O)Nc2cccc3ccccc23)n1` (centres undefined), 0.9 µg/mL (≈ 2.53 µM).
In the case of `COc1ccc(CSCC(=O)Nc2ccccc2)cc1[N+](=O)[O-]` it was above 49.9 µg/mL.
In turn, `O=C(COC(=O)c1ccco1)Nc1cc(S(=O)(=O)N2CCCCC2)ccc1Cl` yielded a solubility (kinetic) of 6.7 µg/mL (≈ 15.7 µM).
With `O=C(N/N=C/c1cccnc1)c1ccccc1Br`, the kinetic solubility is above 45.6 µg/mL.
For `COc1ccc(C(=O)NC(C)CCc2ccccc2)c(OC)c1` (centres undefined), the solubility (kinetic) came out at 41.5 µg/mL (≈ 132 µM).
Consider `CC(C)N1C(=O)CCC1C(=O)NCc1ccco1` (centres undefined), for which the kinetic solubility worked out at 29.2 µg/mL (≈ 117 µM). This solubility kinetic and that of the molecule before are within 1.5-fold of each other.
In the case of `CN1CCC(NC(=S)Nc2cccc([N+](=O)[O-])c2)CC1` it was above 44.2 µg/mL; in that of `Nc1ccc(C(=O)O)cc1[N+](=O)[O-]`, above 27.3 µg/mL; in that of `O=C1NCCCCC1NS(=O)(=O)c1cccc2ccccc12` (centres undefined), above 47.8 µg/mL.
Consider `O=C(O)COCC(=O)Nc1ccc2c(c1)ncn2CCc1ccccc1`, for which the solubility (kinetic) is above 53 µg/mL.
In the case of `COc1cc(S(=O)(=O)N2CCOCC2)ccc1NC(=O)COC(=O)/C=C/c1cc(OC)c(OC)c(OC)c1` it was 4.6 µg/mL (≈ 8.35 µM).
Molecule `O=C(NC1CCN(c2ncccn2)CC1)c1ccccc1Cl` yielded a kinetic solubility above 47.5 µg/mL.
With `COc1ccccc1NC(=O)NCCCCc1ccccc1`, the solubility (kinetic) is 5.3 µg/mL (≈ 17.8 µM).
`Cn1c(O)c(C=NCCCCCCCCCCC(=O)O)c(=O)n(C)c1=O` showed a solubility (kinetic) above 55.1 µg/mL.
For the molecule `CCN(CC)C(=O)N[C@H]1C[C@@H]2c3cccc4[nH]cc(c34)C[C@H]2N(C)C1`, the solubility (kinetic) stood at 14.1 µg/mL (≈ 41.4 µM).
To `Cc1ccc(C)c(C(=O)Nc2ccncc2)c1` belongs above 33.9 µg/mL.
The molecule `OCCN1CCN(c2cc(C(F)(F)F)nc3c(F)cccc23)CC1` returned a solubility (kinetic) of 48.5 µg/mL (≈ 141 µM).
Molecule `Cc1ccc2c(N)c(C(=O)c3ccccc3)sc2n1` displayed a solubility (kinetic) of 3.1 µg/mL (≈ 11.6 µM).
The molecule `CCOc1ccc(-c2ncncc2-c2ccc(OC)c(OC)c2)c(O)c1` registered a kinetic solubility of 3.6 µg/mL (≈ 10.2 µM). This solubility kinetic and that of the molecule before are within 1.5-fold of each other.
`COCCN=C(NS(=O)(=O)c1cccs1)c1ccccc1Cl` had a kinetic solubility above 53.8 µg/mL.
On to `CC(C)Oc1ccc(CNC(=S)Nc2ccccc2)cc1Cl`, for which the solubility (kinetic) was 7.2 µg/mL (≈ 21.5 µM).
`O=C(NC1CC(=O)c2sccc21)c1cccc(C(F)(F)F)c1` (centres undefined) displayed a kinetic solubility above 48.8 µg/mL.
Take `COc1ccc(C(=O)O/N=C(\N)c2ccccn2)cc1[N+](=O)[O-]`: the kinetic solubility stood at 2.6 µg/mL (≈ 8.22 µM).
Take `COC(=O)/C(C#N)=C/c1c(Oc2cc(C)cc(C)c2)nc2ccccn2c1=O`: the kinetic solubility turned out to be 1.7 µg/mL (≈ 4.53 µM).
Turning to `COC(=O)C1CN(C(=O)c2cccc(OC(F)F)c2)c2ccccc2O1` (centres undefined), the solubility (kinetic) was above 54.5 µg/mL.
Regarding `Cc1ccc(CSc2[nH]c(=O)ncc2C)cc1`, the solubility (kinetic) was 11 µg/mL (≈ 44.7 µM).
`COc1ccc(C(=O)NC(=O)COC(=O)C2CC2C)cc1` (centres undefined) yielded a solubility (kinetic) of 13.7 µg/mL (≈ 47 µM).
In the case of `CCOC(=O)c1sc(=S)n(-c2ccccc2Cl)c1C` it was 2.7 µg/mL (≈ 8.6 µM); in that of `CC1CCCCC1NC(=O)CO/N=C/c1ccc(OC(F)F)cc1` (centres undefined), 8.7 µg/mL (≈ 25.6 µM).
In the case of `O=c1c2cccnc2nc2n1CCCCC2`, the kinetic solubility is above 32.3 µg/mL.
The molecule `CC(NC(=O)C(C)(C)C)C(c1cccs1)N1CCOCC1` (centres undefined) showed a solubility (kinetic) above 46.6 µg/mL.
`NC(=O)COC(=O)c1c2c(nc3ccccc13)CCCCC2` returned a solubility (kinetic) above 44.8 µg/mL.
In the case of `CC(=O)c1c(C)[nH]c(C(=O)NNC(=O)c2ccc(C)cc2)c1C`, the kinetic solubility was above 47 µg/mL.
Turning to `COc1cc(NC(=O)CN2CCCCCC2)cc(OC)c1`, the solubility (kinetic) was above 43.9 µg/mL.
As for `Cc1ccc2c(c1)c(=O)c1c3n2CCN(CC#N)C3CC1` (centres undefined), the solubility (kinetic) was 37.7 µg/mL (≈ 135 µM).
In the case of `Cc1noc(C)c1NC(=O)NC(c1ccccc1)c1ccccc1` it was 10.2 µg/mL (≈ 31.7 µM); in that of `Cc1c(C)n(CCc2ccccc2)c2ncnc(NCCCO)c12`, 48.3 µg/mL (≈ 149 µM).

Values taken from PubChem BioAssay AID1996.
